Tests used:
[1] = system: melanoma (B16F10-Luc) cell line capable of stably expressing firefly luciferase (Luc); assay: siLuc transfection by lipid nanoparticles into B16F10-Luc cells, firefly luciferase expression; format: cell-based; settings: for siLuc transfection efficiency: lipid nanoparticles (lipid compound:DSPC:cholesterol:DSPE-PEG 38:10:50:2), siRNA 50 ng/well, N/P ratios 4:1, 8:1 and 16:1, 24 h after transfection
Experimental: B16F10-Luc cells were inoculated into a 96-well cell culture plate. On the next day, transfection was performed when the cells grew to about 80%.
The mother solutions were stored in a refrigerator at −20° C., diluted as needed during use, and then mixed at a molar ratio of 38:10:50:2 (lipid compounds:DSPC:cholesterol:DSPE-PEG). The siLuc was dissolved in a citrate buffer solution (pH-4), where a volume of the citrate buffer solution was two times the volume of an ethanol-lipid mixture obtained above. Finally, the citrate buffer solution containing siLuc (pH=4) and the ethanol-lipid mixture were quickly and fully mixed and then shaken and incubated at room temperature for 30 min for self-assembly to form lipid nanoparticles. The assembled lipid nanoparticles were added to the 96-well cell culture plate containing the B16F10-Luc for transfection, respectively. Before the transfection, a culture solution in the culture plate was sucked out, and 80 μL of a new culture medium was added, where an added amount of the siRNA was 50 ng/well. Nitrogen-phosphorus ratios (N/P ratio) of the protonable lipid compounds to the siRNA were 4:1, 8:1 and 16:1, respectively.
Positive control group: The siLuc was transfected by Lipo2000, a commercial transfection reagent. Transfection was performed according to an operating instruction of the Lipo2000. 50 ng of the siLuc was added to 5 μL of Opti-MEM, and 0.3 μL of the Lipo2000 was added to another 50 μL of Opti-MEM. Finally, an siRNA Opti-MEM solution was added to a Lipo2000 Opti-MEM solution, evenly mixed, incubated at room temperature for 15 min, and then added to a 96-well cell culture plate. Before the transfection, a culture solution in the culture plate was sucked out, and 80 μL of a new culture medium was added, where an added amount of the siRNA was 50 ng/well.
Negative control group: Only the B16F10-Luc cells were used without transfection.
After the transfection was performed for 24 h, the cells were lysed and subjected to centrifugation to remove cell debris and contents, a supernatant was taken, a firefly luciferase substrate was added, and an expression amount of firefly luciferase was determined so as to compare the siLuc transfection efficiency of the synthesized lipid compounds.
The mother solutions were stored in a refrigerator at −20° C., diluted as needed during use, and then mixed at a molar ratio of 38:10:50:2 (lipid compounds:DSPC:cholesterol:DSPE-PEG). The siLuc was dissolved in a citrate buffer solution (pH=4), where a volume of the citrate buffer solution was two times the volume of an ethanol-lipid mixture obtained above. […]

[2] = system: 293T cell line; assay: plasmid DNA (pDNA-GFP-Luc) transfection by lipid nanoparticles into 293T cells; format: cell-based; settings: pDNA-GFP-Luc 80 ng/well, N/P ratios 8:1, 16:1 and 32:1, 48 h after transfection

`CCCCCCCCCCCC(=O)OCC(O)CN(CCCN(C)C)CC(O)COC(=O)CCCCCCCCCCC` (centres unmarked) [A1-C12] was tested, and the siLuc transfection efficiency [1] was “about 95%”.

For `CCCCCCCCCCCC(=O)OCC(O)CN(CCCN1CCCC1)CC(O)COC(=O)CCCCCCCCCCC` (centres unmarked) [A2-C12], the siLuc transfection efficiency [1] was “about 95%”.

`CCCCCCCCCCCCCCCC(=O)OCC(O)CN(CCCN1CCCC1)CC(O)COC(=O)CCCCCCCCCCCCCCC` (centres unmarked) [A2-C16] was tested, and the siLuc transfection efficiency [1] was “about 95%”.

With `CCCCCCCCCCCC(=O)OCC(O)CN(CCN(CCN(CC(O)COC(=O)CCCCCCCCCCC)CC(O)COC(=O)CCCCCCCCCCC)CCN(CC(O)COC(=O)CCCCCCCCCCC)CC(O)COC(=O)CCCCCCCCCCC)CC(O)COC(=O)CCCCCCCCCCC` (centres unmarked) [A12-C12] the “inhibition of gene expression of the firefly luciferase” value ([1]; lipid nanoparticles with siLuc, N/P ratios 4:1 to 32:1, 24 h after transfection) was “almost completely inhibited” and the “plasmid transfection efficiency (firefly luciferase expression) compared with PEI” value [2] was “equivalent to that of the commercial reagent PEI”.
